Experimental data taken from patent US20080311126A1, “Antisense Oligonucleotides Directed to Ribonucleotide Reducatase R2 and Uses Thereof in Combination Therapies for the Treatment of Cancer” (Genesense Technologies, Inc, priority 2004, published 2008).
“Also recorded” adds a separate entry of the source.

Assays:
Format in all cases: in vivo
[1] = tested on: Caki-1 human renal carcinoma; test: Caki-1 renal tumour xenograft in SCID mice, SEQ ID NO:1 and interferon alpha
Procedure: Cell Line: Human renal carcinoma cell line (Caki-1) was grown as monolayer culture in Minimum essential medium (α-MEM) supplemented with 10% fetal bovine serum (FEBS), 0.1 mM non-essential amino acid, 1.0 mM sodium pyruvate, 100 U/ml penicillin, 100 μg/ml streptomycin and 0.25 μg/ml amphotericin B and 2 mM L-alanyl-L-glutamine at 37° C. in an atmosphere of 5% CO2 in air. The tumour cells were routinely subcultured twice weekly by trypsin-EDTA treatment. The cells were harvested from subconfluent logarithmically growing culture by treatment with trypsin-EDTA and counted for tumour inoculation.
Tumour Inoculation: An acclimation period of at least 7 days was allowed between animal receipt and commencement of tumour inoculation. When the female SCID mice were 6-7 weeks of age (20-25 g), each mouse was subcutaneously (s.c.) injected with 5×10^6 Caki-1 human renal carcinoma cells in 0.1 ml of PBS at the right flank of the mice to induce tumour growth.
Dose-Preparation and Treatment: The dose for SEQ ID NO:1 was formulated using the following procedure. From a concentrated stock solution (usually prepared in ddH2O at a concentration of 50 mg/ml and kept at −80° C.), SEQ ID NO:1 was diluted with saline to achieve a final target concentration of 1 or 2.5 mg/ml on the first day of dosing. Enough SEQ ID NO:1 was diluted so that the compound could be administered by bolus infusion into the tail vein every other day for the duration of the experiment. Recombinant interferon alfa-2b (Intron A™) was utilized according to the dose and treatment schedules below. The treatments were started 7 days after the tumour cell inoculation when the tumour size reached an approximate volume of 125 mm^3. Each treatment group contained 10 tumour-bearing mice. Routes of administration are indicated as follows: intravenous (i.v.) and intratumoural (i:t.).
Groups and Treatments: The following treatment groups were evaluated: • 1. Saline treated group-1: saline 0.1 ml/mouse/48 hours, i.v., n=10 • 2. Saline treated group-2: saline 0.05 ml/mouse/5 days/week, i.t., n=10 • 3. […] Intron A 10^3 unit/5 days/week treated group: 10^3 unit Intron A in 0.05 ml saline, i.t., n=10 • 6. Intron A 10^5 unit/5 days/week treated group: 10^5 unit Intron A in 0.05 ml saline, i.t., n=10 • 7. SEQ ID NO:1 1 mg/kg Plus Intron A 10^3 treated group: “3+5”, n=10 • 8. SEQ ID NO:1 1 mg kg Plus Intron A 10^5 treated group: “3+6”, n=10 • 9. SEQ ID NO:1 2.5 mg/kg Plus Intron A […], n=10 • 10. SEQ ID NO:1 2.5 mg/kg Plus Intron A 10^5 treated group: “4+6”, n=10
Mice received 25 treatments with SEQ ID NO:1 and 30 treatments with Intron A. The dosing schedule for Intron A was: treatment with Intron A for 3 consecutive weeks, 1 week off, and treatment with Intron A again for another 3 consecutive weeks. The dosing schedule for SEQ ID NO:1 was treatment with SEQ ID NO:1 every other day for the duration of the experiment.
Endpoints: The effects of SEQ ID NO:1 and Intron A on tumour growth were determined. Tumour sizes were measured every week from day 7 after the tumour cell inoculation in two dimensions using a caliper, and the volume was expressed in mm^3 using the formula: V=0.5 a×b^2, where a and b are the long and short diameters of the tumour, respectively. Mean tumour volumes calculated from each measurement were then plotted in a standard graph to compare the anti-tumour efficacy to that of controls. A day after the last treatment, tumours were excised from the animals and their weights were measured.
A second independent in vivo study was conducted as described in Example 1 utilizing SCID mice (female, 6 weeks old) and Caki-1 (human renal carcinoma cell line) to test the efficacy of SEQ ID NO:1 in combination with IFN alpha Briefly, 5×10^6 Caki-1 human renal carcinoma cells in 0.1 ml of PBS were injected subcutaneously at the right flank of the mice to induce tumour growth. Treatments started on the seventh day after tumour cell injection. […]

[2] = tested on: Caki-1 human renal carcinoma; test: Caki-1 renal tumour xenograft in SCID mice, SEQ ID NO:1 and interleukin-2; details: Example 10; SEQ ID NO:1 10 mg/kg/48 hours i.v.; IL2 20000 or 5000 unit 2 times per day i.p.
Procedure: Cell line: Human renal carcinoma cell line (Caki-1) was grown as monolayer culture in Minimum essential medium (α-MEM) supplemented with 10% fetal bovine serum (FBS), 0.1 mM non-essential amino acid, 1.0 mM sodium pyruvate, 100 U/ml penicillin, 100 μg/ml streptomycin and 0.25 μg/ml amphotericin B and 2 mM L-alanyl-1-glutamine at 37° C. in an atmosphere of 5% CO2 in air. The tumour cells were routinely subcultured twice weekly by trypsin-EDTA treatment. The cells were harvested from subconfluent logarithmically growing culture by treatment with trypsin-EDTA and counted for tumour inoculation.
Tumour Inoculation: An acclimation period of at least 7 days was allowed between animal receipt and commencement of tumour inoculation. […]
Groups and treatments: The following treatments were evaluated in this experiment: • 1. […]
Tumour sizes were measured every week day from day 7 after the tumour cell inoculation in two dimensions using a caliper, and the volume was expressed in mm^3 using the formula: V=0.5 a×b^2, where a and b are the long and short diameters of the tumour, respectively. Mean tumour volumes calculated from each measurement were then plotted in a standard graph to compare the anti-tumour efficacy to that of controls. A day after the last treatment, tumours were excised from the animals and their weights were measured.

[3] = tested on: Hela S3 human cervix epitheloid carcinoma cells; test: Hela S3 hydroxyurea resistant cervix carcinoma xenograft in SCID mice
Procedure: Hela S3 human cervix epitheloid carcinoma cells (5×10^5 cells in 100 μl of PBS) were subcutaneously injected into the right flank of 6-7 weeks old female SCID mice. Hela S3 is a hydroxyurea resistant cell line. After the size of tumour reached an approximate volume of 100 mm^3, 3 days post tumour cell injection, SEQ ID NO:1 was administered by bolus infusion into the tail vein every other day at 10 mg/kg 6 times. Control animals received saline alone for the same period. Antitumour effect of SEQ ID NO:1 was further compared to that of Hydroxyurea or Cisplatin alone or in combination. Hydroxyurea was administered intraperitoneally every day at a dose of 250 mg/kg for 10 days. Cisplatin was administered intravenously once a week for three weeks at a dose of 4 mg/kg. Antitumour activities were estimated by the inhibition of tumour volume, which was measured with caliper. Each point represents mean tumour volume calculated from 10 animals per experimental group. […] As expected, treatment with Hydroxyurea during the same period was ineffective against Hydroxyurea-resistant tumour.

[4] = tested on: Human Pancreatic Adenocarcinoma; test: Tumour growth assay, human pancreatic adenocarcinoma in mice
[5] = tested on: Human Lung Carcinoma; test: Tumour growth assay, human lung carcinoma in CD-1 Nude mice

## GGCTAAATCGCTCCACCAAG (chemistry not given here) [SEQ ID NO: 1, antisense oligonucleotide that hybridizes to the coding region of human ribonucleotide reductase R2 mRNA]
[1]; Example 2, SEQ ID NO:1 1 or 2.5 mg/kg/48 hours i.v., Intron A 10^3 or 10^5 unit 5 days/week i.t.
  anti-tumour efficacy (tumour volume, tumour weight): significant anti-tumour efficacy
[1]; Example 3, SEQ ID NO:1 2.5 or 5 mg/kg every 2 days i.v., Intron 10^5 unit 5 days/week i.t.
  anti-tumour efficacy (tumour volume, tumour weight): significant anti-tumour efficacy
[1]; Example 4, oligonucleotide 2.5 mg/kg every 2 days i.v., Intron A 10^5 unit 5 days/week i.t.
  anti-tumour efficacy (tumour volume, tumour weight): significant anti-tumour efficacy
[2]
  anti-tumour efficacy (tumour volume, tumour weight): anti-tumour efficacy as monotherapies; also recorded: superior to both high and low dose IL-2 therapy
[3]; Hela S3 (cervix), hydroxyurea resistance, SCID
  Tumour weight as % of saline control: 24%
[3]; SEQ ID NO:1 10 mg/kg 6 times, Hydroxyurea 250 mg/kg i.p. 10 days, Cisplatin 4 mg/kg i.v. weekly
  antitumour effect (tumour volume): significant delay of tumour growth; also recorded: superior to the inhibitory effects observed with Cisplatin alone
[4]; Human Pancreatic Adenocarcinoma
  Inhibition of tumour weight: approximately 65%
[4]; up to 39 days after tumour implantation
  inhibition of tumour growth: Complete inhibition of tumour growth
[5]; CD-1 Nude mice, Days 14 to 19 after tumour implantation
  Inhibition of tumour size: approximately 85% in CD-1 Nude mice
[5]; Human Lung Carcinoma
  Inhibition of tumour weight: approximately 70%
